Measurements published in US7081468B2, “Ortho-substituted anthranilic acid amides and their use as medicaments” (Schering AG, priority 2000, dated 2006).

Legend:
KDR kinase = KDR kinase (Homo sapiens, UniProt P35968); assay: Inhibition of the KDR kinase activity (33P-ATP, poly-(Glu4Tyr) filter assay); type: biochemical; details: 10 minutes at room temperature
Experimental: Solutions Required for the Tests
• Stock solution A: 3 mmol of ATP in water, pH 7.0 (−70° C.) • Stock solution B: g-33P-ATP 1 mCi/100 μl • Stock solution C: poly-(Glu4Tyr) 10 mg/ml in water Solution for Dilutions • Substrate solvent: 10 mmol of DTT, 10 mmol of manganese chloride, 100 mmol of magnesium chloride • Enzyme solution: 120 mmol of tris/HCl, pH 7.5, 10 μM of sodium vanadium oxide Sample Application 1 Inhibition of the KDR Kinase Activity in the Presence of the Compounds According to the Invention
In a microtiter plate (without protein binding) that tapers to a point, 10 μl of substrate mix (10 μl of volume of ATP stock solution A+25 μCi of g-33P-ATP (about 2.5 μl of stock solution B)+30 μl of poly-(Glu4Tyr) stock solution C+1.21 ml of substrate solvent), 10 μl of inhibitor solution (substances corresponding to the dilutions, 3% DMSO in substrate solvent as a control) and 10 μl of enzyme solution (11.25 μg of enzyme stock solution (KDR or FLT-1 kinase) are added at 4° C. in 1.25 ml of enzyme solution (dilute). It is thoroughly mixed and incubated for 10 minutes at room temperature. Then, 10 μl of stop solution (250 mmol of EDTA, pH 7.0) is added, mixed, and 10 μl of the solution is transferred to a P 81 phosphocellulose filter. Then, it is washed several times in 0.1 M phosphoric acid. The filter paper is dried, coated with Meltilex and measured in a microbeta counter.
The IC50 values are determined from the inhibitor concentration that is necessary to inhibit the phosphate incorporation to 50% of the uninhibited incorporation after removal of the blank reading (EDTA-stopped reaction).

C-Kit = C-Kit (Homo sapiens, UniProt P10721); assay: C-Kit-isolated kinase-inhibition test; type: biochemical; details: 10 minutes incubation
C-Kit, sequence (P10721 26-976): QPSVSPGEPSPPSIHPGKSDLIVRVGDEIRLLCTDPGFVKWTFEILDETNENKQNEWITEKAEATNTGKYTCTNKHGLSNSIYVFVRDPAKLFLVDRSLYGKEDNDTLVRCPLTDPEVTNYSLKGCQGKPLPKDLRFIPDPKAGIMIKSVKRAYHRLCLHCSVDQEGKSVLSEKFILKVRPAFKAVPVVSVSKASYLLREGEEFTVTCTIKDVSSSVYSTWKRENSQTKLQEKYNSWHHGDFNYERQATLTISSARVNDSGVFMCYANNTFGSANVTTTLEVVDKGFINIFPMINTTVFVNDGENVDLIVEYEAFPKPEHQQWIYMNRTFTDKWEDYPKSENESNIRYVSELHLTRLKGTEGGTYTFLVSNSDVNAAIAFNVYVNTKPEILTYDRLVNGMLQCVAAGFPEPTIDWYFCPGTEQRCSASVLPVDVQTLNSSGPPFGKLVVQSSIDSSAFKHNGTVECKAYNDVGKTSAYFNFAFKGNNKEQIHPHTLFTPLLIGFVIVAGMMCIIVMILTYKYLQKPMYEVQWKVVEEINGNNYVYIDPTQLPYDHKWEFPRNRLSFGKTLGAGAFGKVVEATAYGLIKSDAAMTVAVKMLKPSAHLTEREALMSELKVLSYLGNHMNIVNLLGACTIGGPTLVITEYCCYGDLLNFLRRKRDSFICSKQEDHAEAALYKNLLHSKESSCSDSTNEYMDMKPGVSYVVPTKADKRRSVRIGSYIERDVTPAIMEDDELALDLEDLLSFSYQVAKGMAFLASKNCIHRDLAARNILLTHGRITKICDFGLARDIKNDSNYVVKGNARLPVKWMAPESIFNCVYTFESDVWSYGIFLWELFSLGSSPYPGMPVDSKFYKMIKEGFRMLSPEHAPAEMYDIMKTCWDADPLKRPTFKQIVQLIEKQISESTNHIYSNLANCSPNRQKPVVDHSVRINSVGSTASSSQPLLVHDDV
Experimental: C-Kit-Isolated Kinase-Inhibition Test
Assay Solutions Substrate Solutions for 125 Assays:
10 μl of ATP (37.5 μM), 25 μCi of γ33P-ATP (˜+2.5 μl of Amersham redivue solution) and 10 μl of poly-(glu,tyr) are mixed with 1.23 ml of solvent (1×).
The compounds are brought to the desired concentration in the solvent (1×).
The corresponding enzymatic preparation is brought to the necessary concentration with the solvent (1×) to obtain 1.24 ml. Then, 12.5 μl of sodium vanadate solution is added.
The components are added in the following sequence to a microtiter plate with round or stippled floors:
10 μl of the inhibitor in 3× final concentration,
10 μl of substrate mixture,
said components are mixed, and the reaction is started by adding:
10 μl of enzyme preparation.
The batch is incubated for 10 minutes and then brought to a halt by adding 10 μl of stop solution. 10 μl of the thus treated batch is added to the phosphocellulose filter, rewashed in phosphoric acid, then dried and then melted in a meltilex scintillator and measured.

KDR kinase, sequence (P35968 20-1356): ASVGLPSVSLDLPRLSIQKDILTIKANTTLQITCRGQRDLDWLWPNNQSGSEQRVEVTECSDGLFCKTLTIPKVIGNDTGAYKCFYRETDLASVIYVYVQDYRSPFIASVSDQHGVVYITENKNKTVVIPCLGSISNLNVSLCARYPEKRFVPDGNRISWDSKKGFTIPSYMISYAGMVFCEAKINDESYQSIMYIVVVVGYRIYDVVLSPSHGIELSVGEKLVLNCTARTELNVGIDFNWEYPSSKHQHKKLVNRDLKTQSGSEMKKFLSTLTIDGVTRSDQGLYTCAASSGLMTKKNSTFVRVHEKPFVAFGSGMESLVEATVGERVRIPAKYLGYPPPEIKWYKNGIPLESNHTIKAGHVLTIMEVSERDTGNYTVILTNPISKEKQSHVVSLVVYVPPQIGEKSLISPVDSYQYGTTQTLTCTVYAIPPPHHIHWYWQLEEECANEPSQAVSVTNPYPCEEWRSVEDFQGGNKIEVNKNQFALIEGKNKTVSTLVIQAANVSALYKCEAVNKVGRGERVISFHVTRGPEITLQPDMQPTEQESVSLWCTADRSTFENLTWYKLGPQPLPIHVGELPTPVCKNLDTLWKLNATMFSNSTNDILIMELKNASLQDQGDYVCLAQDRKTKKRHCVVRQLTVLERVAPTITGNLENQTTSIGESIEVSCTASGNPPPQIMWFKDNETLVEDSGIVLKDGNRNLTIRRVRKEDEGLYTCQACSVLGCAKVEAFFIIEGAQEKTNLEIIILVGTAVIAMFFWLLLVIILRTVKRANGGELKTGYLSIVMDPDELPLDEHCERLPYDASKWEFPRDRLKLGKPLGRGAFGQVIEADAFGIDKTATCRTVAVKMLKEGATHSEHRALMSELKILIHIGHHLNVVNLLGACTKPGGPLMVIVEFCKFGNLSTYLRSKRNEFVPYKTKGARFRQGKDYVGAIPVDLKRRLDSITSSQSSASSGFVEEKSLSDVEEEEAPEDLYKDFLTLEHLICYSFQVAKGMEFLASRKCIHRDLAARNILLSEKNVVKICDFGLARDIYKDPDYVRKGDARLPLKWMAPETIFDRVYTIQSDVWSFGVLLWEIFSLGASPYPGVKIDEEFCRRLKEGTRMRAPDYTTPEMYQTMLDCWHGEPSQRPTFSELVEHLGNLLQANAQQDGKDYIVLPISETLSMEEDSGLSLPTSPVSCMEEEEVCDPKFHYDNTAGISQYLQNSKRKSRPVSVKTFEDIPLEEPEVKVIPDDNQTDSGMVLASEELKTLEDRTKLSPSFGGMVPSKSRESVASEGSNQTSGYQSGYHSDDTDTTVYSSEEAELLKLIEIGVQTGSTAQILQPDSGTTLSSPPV

Q: For `O=C(Nc1cc2ccccc2oc1=O)c1ccccc1NCc1ccncc1` [Example 1, N-[2-Oxo-2H-1-benzopyran-3-yl-]-2-[(4-pyridyl)methyl]amino-benzoic acid amide], which IC50 (KDR kinase) is on record?
A: 3 nM

Q: What about the IC50 (C-Kit) of the same compound?
A: 6000 nM

Q: For `O=C(Nc1cc2cn[nH]c2cc1Cl)c1ccccc1NCc1ccncc1` [Example 2, N-(6-Chloroindazol-5-yl)-2-[(4-pyridyl)methyl]amino-benzoic acid amide], which IC50 (KDR kinase) is on record?
A: 200 nM

Q: What about the IC50 (C-Kit) of the same compound?
A: > 10000 nM

Q: What does the source list for `Cc1cc2oc(=O)ccc2cc1NC(=O)c1ccccc1NCc1ccncc1` [Example 3]?
A: IC50 (KDR kinase): 30 nM; IC50 (C-Kit): 8000 nM; melting point: 191.2 °C

Q: Which IC50 (KDR kinase) does the source give for `COc1ccc2cc(NC(=O)c3ccccc3NCc3ccncc3)c(=O)oc2c1` [Example 5] here?
A: 10 nM

Q: And the IC50 (C-Kit)?
A: > 10000 nM

Q: What about the melting point of the same compound?
A: 171 to 172 °C

Q: Which results are given for `O=C(Nc1cc2cc(Cl)ccc2oc1=O)c1ccccc1NCc1ccncc1` [Example 6]?
A: IC50 (KDR kinase): 200 nM; melting point: 182 to 184 °C

Q: Which IC50 (KDR kinase) does the source give for `O=C(Nc1cc2cc(Br)ccc2oc1=O)c1ccccc1NCc1ccncc1` [Example 7] here?
A: 200 nM

Q: And the IC50 (C-Kit)?
A: > 10000 nM

Q: What about the melting point of the same compound?
A: 198 to 200 °C

Q: For `Cc1cc2cn[nH]c2cc1NC(=O)c1ccccc1NCc1ccncc1` [Example 9], which IC50 (KDR kinase) is on record?
A: 40 nM

Q: With `O=C(Nc1cc2[nH]ncc2cc1Cl)c1ccccc1NCc1ccncc1` [Example 10] as the compound, how does the IC50 (KDR kinase) read?
A: 10 nM

Q: What about the IC50 (C-Kit) of the same compound?
A: > 10000 nM

Q: And the melting point?
A: 236.7 °C

Q: For `Cc1cc2[nH]ncc2cc1NC(=O)c1ccccc1NCc1ccncc1` [Example 11], which IC50 (KDR kinase) is on record?
A: 1000 nM

Q: What about the IC50 (C-Kit) of the same compound?
A: > 10000 nM

Q: And the melting point?
A: 224.2 °C

Q: With `COc1ccc(C(F)(F)F)cc1NC(=O)c1ccccc1NCc1ccncc1` [Example 13] as the compound, how does the IC50 (KDR kinase) read?
A: 50 nM

Q: And the IC50 (C-Kit)?
A: 5000 nM

Q: And the melting point?
A: 135 °C

Q: What does the source list for `O=C(Nc1cc(C(F)(F)F)ccc1Cl)c1ccccc1NCc1ccncc1` [Example 14]?
A: IC50 (KDR kinase): 1 nM; IC50 (C-Kit): 5000 nM; melting point: 105 °C

Q: What does the source list for `O=C(Nc1cc(C(F)(F)F)ccc1F)c1ccccc1NCc1ccncc1` [Example 15]?
A: IC50 (KDR kinase): 2 nM; IC50 (C-Kit): 2000 nM

Q: Which results are given for `O=C(Nc1cc(C(F)(F)F)ccc1C(F)(F)F)c1ccccc1NCc1ccncc1` [Example 17]?
A: IC50 (C-Kit): > 10000 nM; melting point: 68 °C

Q: What does the source list for `O=C(Nc1ncc2ccccc2c1Br)c1ccccc1NCc1ccncc1` [Example 26]?
A: IC50 (KDR kinase): 1 nM; IC50 (C-Kit): 2000 nM; melting point: 135.8 °C

Q: Which results are given for `Cc1cc2cc(Cl)ccc2nc1NC(=O)c1ccccc1NCc1ccc(O)nc1` [Example 28]?
A: IC50 (KDR kinase): 50 nM; IC50 (C-Kit): 500 nM; melting point: 172 °C
